Results on two compounds are retold here after US20110184418A1, “Unsealed, Non-Colloidal Radiopharmaceutical Compositions and Methods for Treatment of Abnormal Tissue” (priority 2009, published 2011).

The data set can be described thus: Radioactive decay of the isotopes. The following applies: at day 30, from half-life. Format: physicochemical.

As for `[177Lu]` [Lu-177, lutetium-177], the “radioactive isotope expected to remain in the subject” value was “less than 6.25%”.

Consider `[166Ho]` [Ho-166, holmium-166], for which the “radioactive isotope expected to remain in the subject” value is listed as “less than 0.20%”.
